In PMC9627624, “Molecular iodine-promoted oxidative cyclization for the synthesis of 1,3,4-thiadiazole-fused- [1,2,4]-thiadiazole incorporating 1,4-benzodioxine moiety as potent inhibitors of α-amylase and α-glucosidase: In vitro and in silico study” (Frontiers in Chemistry, 2022):

| Structure (SMILES) | melting point [°C] |
| --- | --- |
| O=[N+]([O-])c1ccc(/N=c2\snc3sc(C4COc5ccccc5O4)nn23)cc1 (stereo not shown) [Compound 1] | 210 to 211 |
| Oc1ccc(/N=c2\snc3sc(C4COc5ccccc5O4)nn23)c(O)c1 (stereo not shown) [Compound 2] | 201 to 202 |
| Oc1cc(O)cc(/N=c2\snc3sc(C4COc5ccccc5O4)nn23)c1 (stereo not shown) [Compound 3] | 200 to 201 |
| Oc1ccc(/N=c2\snc3sc(C4COc5ccccc5O4)nn23)cc1O (stereo not shown) [Compound 5] | 201 to 202 |
| Oc1ccc(O)c(/N=c2\snc3sc(C4COc5ccccc5O4)nn23)c1 (stereo not shown) [Compound 6] | 199 to 200 |
| Oc1cccc(/N=c2\snc3sc(C4COc5ccccc5O4)nn23)c1 (stereo not shown) [Compound 7] | 191 to 192 |
| Oc1cc(O)c(/N=c2\snc3sc(C4COc5ccccc5O4)nn23)c(O)c1 (stereo not shown) [Compound 8] | 214 to 215 |
| CN(C)c1ccc(/N=c2\snc3sc(C4COc5ccccc5O4)nn23)cc1 (stereo not shown) [Compound 9] | 206 to 207 |
| O=[N+]([O-])c1ccccc1/N=c1\snc2sc(C3COc4ccccc4O3)nn12 (stereo not shown) [Compound 10] | 209 to 210 |
| Clc1ccc(/N=c2\snc3sc(C4COc5ccccc5O4)nn23)cc1 (stereo not shown) [Compound 13] | 204 to 205 |
| COC(=O)c1ccc(/N=c2\snc3sc(C4COc5ccccc5O4)nn23)cc1 (stereo not shown) [Compound 14] | 216 to 217 |
| Cc1ccccc1/N=c1\snc2sc(C3COc4ccccc4O3)nn12 (stereo not shown) [Compound 15] | 188 to 189 |
| Cc1ccc(/N=c2\snc3sc(C4COc5ccccc5O4)nn23)cc1 (stereo not shown) [Compound 16] | 187 to 188 |
| Clc1cccc(/N=c2\snc3sc(C4COc5ccccc5O4)nn23)c1 (stereo not shown) [Compound 17] | 203 to 204 |
| Cc1cccc(/N=c2\snc3sc(C4COc5ccccc5O4)nn23)c1 (stereo not shown) [Compound 19] | 186 to 187 |
| COc1ccc(/N=c2\snc3sc(C4COc5ccccc5O4)nn23)cc1O (stereo not shown) [Compound 20] | 212 to 213 |
| Oc1cccc(/N=c2\snc3sc(C4COc5ccccc5O4)nn23)c1O (stereo not shown) [Compound 22] | 198 to 199 |
| Fc1ccccc1/N=c1\snc2sc(C3COc4ccccc4O3)nn12 (stereo not shown) [Compound 23] | 193 to 194 |
| Fc1cccc(/N=c2\snc3sc(C4COc5ccccc5O4)nn23)c1 (stereo not shown) [Compound 24] | 194 to 195 |
